Experimental data taken from US7517874B2 (priority 2007, dated 2009).

Key:
[1] = target: human CB1 receptor (hCB1) (Homo sapiens, UniProt P21554); assay: cell-based; assay type: cell-based; conditions: for +/− HCB1: agonist or inverse agonist at hCB1
In short: (§1)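 Agonism or inverse agonism was assessed as change in intracellular cAMP in CHO-K1 cells expressing human CB1 or rat CB2 (genomic DNA, pcDNA3.1).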

[2] = target: T1, rat CB2 receptor (rCB2) (Rattus norvegicus, UniProt Q9QZN9); assay: cell-based; assay type: cell-based; conditions: for +/− RCB2: agonist or inverse agonist at rCB2
T1 sequence (Q9QZN9 1-360): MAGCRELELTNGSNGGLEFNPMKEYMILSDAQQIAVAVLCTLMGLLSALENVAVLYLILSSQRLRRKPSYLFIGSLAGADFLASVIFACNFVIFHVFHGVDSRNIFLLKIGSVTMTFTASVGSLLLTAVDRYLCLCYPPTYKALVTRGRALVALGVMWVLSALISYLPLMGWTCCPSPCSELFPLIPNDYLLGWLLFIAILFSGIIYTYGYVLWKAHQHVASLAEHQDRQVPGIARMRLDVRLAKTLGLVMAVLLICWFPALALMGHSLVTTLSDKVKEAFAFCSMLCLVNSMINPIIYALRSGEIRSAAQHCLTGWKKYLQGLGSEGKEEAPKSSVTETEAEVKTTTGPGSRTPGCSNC
In short: as §1

[3] = tested on: Male Sprague-Dawley rats; assay: Complete Freund's Adjuvant (CFA) model of inflammatory pain, Randall-Selitto paw pressure; assay type: in vivo; conditions: rat, intraperitoneal
Method: Male Sprague-Dawley rats (Hsd:Sprague-Dawley®™SD®™, Harlan, Indianapolis, Ind.) weighing 201±1 grams, were housed three per cage. Animals had free access to food and water and were maintained on a twelve hour light/dark schedule for the entire duration of the experiment. Approximately 12 hours prior to behavioral testing, animals were placed on wire mesh bottom cages with free access to water but no access to food. Test compounds were prepared in 50% PEG-400 (Sigma-Aldrich, cat. P3265). Indomethacin (Fluka, cat 57413) was suspended in 0.5% methylcellulose (Sigma-Aldrich, cat. 274429). Groups of eight animals were anesthetized with 2-3% isoflurane and local inflammation induced by 50 μl CFA (Sigma-Aldrich, cat F5881, Mycobacterium tuberculosis 1 mg/ml) injected subcutaneously into the plantar surface of the left paw.
Assessment of mechanical hyperalgesia: Baseline and post-treatment withdrawal thresholds to a noxious mechanical stimulus were measured using the Randall-Selitto paw pressure apparatus (Ugo Basile Analgesymeter, model 7200). […] Mechanical hyperalgesia was measured using the Randall-Selitto paw pressure device before CFA injection and after intraperitoneal (i.p.) compound administration over a twenty-four-hour period. The mean and standard error of the mean (SEM) were determined for the injured and normal paws for each treatment group.

[4] = tested on: rats; assay: Spinal nerve ligation (SNL) model of neuropathic pain; assay type: in vivo; conditions: rat, oral 3, 10 and 30 mg/kg, FIG. 4
Method: The SNL model (Kim and Chung 1992) was used to induce chronic neuropathic pain in rats. The rats were anesthetized with isoflurane, the left L5 transverse process was removed, and the L5 and L6 spinal nerves were tightly ligated with 6-0 silk suture. The wound was then closed with internal sutures and external staples. Following at least seven days post SNL, baseline, post-injury and post-treatment values for non-noxious mechanical sensitivity were evaluated using eight Semmes-Weinstein filaments (Stoelting, Wood Dale, Ill., USA) with varying stiffness (0.4, 0.7, 1.2, 2.0, 3.6, 5.5, 8.5, and 15 g) according to the up-down method (Chaplan et al. 1994). Animals were placed on a perforated metallic platform and allowed to acclimate to their surroundings for a minimum of thirty minutes before testing. The mean and standard error of the mean (SEM) were determined for the injured paw in each treatment group. Since this stimulus is normally not considered painful, significant injury-induced increases in responsiveness in this test are interpreted as a measure of mechanical allodynia. The dose which elicited 50% attenuation of mechanical hypersensitivity (ED50) was determined using linear regression analysis. Results obtained after oral administration of compound 317 at 3, 10 and 30 mg/kg and with compound 366 at 1, 3 and 10 mg/kg are shown in FIG. 4.

Chain of human CB1 receptor (hCB1) (P21554 whole entry): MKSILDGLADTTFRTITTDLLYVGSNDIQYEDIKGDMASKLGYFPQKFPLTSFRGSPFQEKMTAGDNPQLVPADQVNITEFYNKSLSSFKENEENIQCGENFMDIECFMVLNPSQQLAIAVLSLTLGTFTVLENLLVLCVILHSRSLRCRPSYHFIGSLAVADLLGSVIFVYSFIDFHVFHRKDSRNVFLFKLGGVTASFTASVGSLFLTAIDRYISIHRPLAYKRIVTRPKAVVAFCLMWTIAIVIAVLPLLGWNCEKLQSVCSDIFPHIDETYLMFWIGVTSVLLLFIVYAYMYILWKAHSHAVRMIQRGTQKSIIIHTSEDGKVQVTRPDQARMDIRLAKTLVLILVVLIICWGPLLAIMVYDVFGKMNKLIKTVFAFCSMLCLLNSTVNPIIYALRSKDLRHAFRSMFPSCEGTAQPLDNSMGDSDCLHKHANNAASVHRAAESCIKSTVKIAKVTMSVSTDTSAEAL

Row | Structure (SMILES) | EC50 [1] [µM] | +/− RCB2 [2] | side effects during the experiment [3] | effect in the neuropathic pain model [4] | +/− HCB1 [1] | EC50 [2] [µM]
1 | CCS(=O)(=O)N1CCn2c(-c3ccccc3)nc(C(=O)N[C@H](C(=O)NC)C(C)(C)C)c2C1 [Compound 91, (S)-N-(3,3-dimethyl-1-(methylamino)-1-oxobutan-2-yl)-7-(ethylsulfonyl)-3-phenyl-5,6,7,8-tetrahydroimidazo[1,5-a]pyrazine-1-carboxamide] | > 10 | − | No side effects were observed |  |  | 
2 | CNC(=O)[C@@H](NC(=O)c1nc(-c2ccccc2)n2c1CN(C)CCC2)C(C)(C)C [Compound 317, (S)-N-(3,3-dimethyl-1-(methylamino)-1-oxobutan-2-yl)-8-methyl-3-phenyl-6,7,8,9-tetrahydro-5H-imidazo[1,5-a][1,4]diazepine-1-carboxamide] | > 10 | + |  | dose response in the neuropathic pain model |  | 
3 | CNC(=O)[C@@H](NC(=O)c1nc(-c2ccc(Cl)cc2F)n2c1CN(C)CCC2)C(C)(C)C [Compound 366, (S)-3-(4-chloro-2-fluorophenyl)-N-(3,3-dimethyl-1-(methylamino)-1-oxobutan-2-yl)-8-methyl-6,7,8,9-tetrahydro-5H-imidazo[1,5-a][1,4]diazepine-1-carboxamide] |  | + |  | dose response in the neuropathic pain model | + | 
4 | CNC(=O)[C@@H](NC(=O)c1nc(Cl)n2c1CN(C)CCC2)C(C)(C)C [Compound 598, (S)-3-chloro-N-(3,3-dimethyl-1-(methylamino)-1-oxobutan-2-yl)-8-methyl-6,7,8,9-tetrahydro-5H-imidazo[1,5-a][1,4]diazepine-1-carboxamide] | > 10 | + |  |  |  | 
5 | CNC(=O)[C@@H](NC(=O)c1nc(-c2cc(C(F)(F)F)cc(C(F)(F)F)c2)n2c1CN(C)CCC2)C(C)(C)C [Compound 599, (S)-3-(3,5-bis(trifluoromethyl)phenyl)-N-(3,3-dimethyl-1-(methylamino)-1-oxobutan-2-yl)-8-methyl-6,7,8,9-tetrahydro-5H-imidazo[1,5-a][1,4]diazepine-1-carboxamide] | > 10 |  |  |  |  | > 10
6 | CNC(=O)[C@@H](NC(=O)c1nc(-c2ccc(Br)cc2F)n2c1CN(C)CCC2)C(C)(C)C [Compound 600, (S)-3-(4-bromo-2-fluorophenyl)-N-(3,3-dimethyl-1-(methylamino)-1-oxobutan-2-yl)-8-methyl-6,7,8,9-tetrahydro-5H-imidazo[1,5-a][1,4]diazepine-1-carboxamide] |  |  |  |  | + | > 10
7 | CNC(=O)[C@@H](NC(=O)c1nc(-c2c(F)cccc2F)n2c1CN(C)CCC2)C(C)(C)C [Compound 601, (S)-3-(2,6-difluorophenyl)-N-(3,3-dimethyl-1-(methylamino)-1-oxobutan-2-yl)-8-methyl-6,7,8,9-tetrahydro-5H-imidazo[1,5-a][1,4]diazepine-1-carboxamide] |  | + |  |  | + | 
8 | CNC(=O)[C@@H]1CCCN1C(=O)c1nc(-c2ccccc2)n2c1CNCCC2 [Compound 602] |  |  |  |  | − | > 10
9 | CNC(=O)[C@@H]1CCCN1C(=O)c1nc(-c2ccccc2)n2c1CN(C)CCC2 [Compound 603, (S)-N-methyl-1-(8-methyl-3-phenyl-6,7,8,9-tetrahydro-5H-imidazo[1,5-a][1,4]diazepine-1-carbonyl)pyrrolidine-2-carboxamide] | > 10 |  |  |  |  | > 10
10 | CNC(=O)C(NC(=O)c1nc(-c2ccccc2)n2c1CNCCC2)C(C)(C)F (centres unmarked) [Compound 604, N-(3-fluoro-3-methyl-1-(methylamino)-1-oxobutan-2-yl)-3-phenyl-6,7,8,9-tetrahydro-5H-imidazo[1,5-a][1,4]diazepine-1-carboxamide] | > 10 | + |  |  |  | 
11 | CNC(=O)C(NC(=O)c1nc(-c2ccccc2)n2c1CN(C)CCC2)C(C)(C)F (centres unmarked) [Compound 605, N-(3-fluoro-3-methyl-1-(methylamino)-1-oxobutan-2-yl)-8-methyl-3-phenyl-6,7,8,9-tetrahydro-5H-imidazo[1,5-a][1,4]diazepine-1-carboxamide] | > 10 | + |  |  |  | 
12 | CNC(=O)[C@@H](NC(=O)c1nc(-c2ccccc2)n2c1CNCCC2)C(C)(C)O [Compound 606, (S)-N-(3-hydroxy-3-methyl-1-(methylamino)-1-oxobutan-2-yl)-3-phenyl-6,7,8,9-tetrahydro-5H-imidazo[1,5-a][1,4]diazepine-1-carboxamide] | > 10 | + |  |  |  | 
13 | CNC(=O)[C@@H](NC(=O)c1nc(-c2ccccc2)n2c1CN(C)CCC2)C(C)(C)O [Compound 607, (S)-N-(3-hydroxy-3-methyl-1-(methylamino)-1-oxobutan-2-yl)-8-methyl-3-phenyl-6,7,8,9-tetrahydro-5H-imidazo[1,5-a][1,4]diazepine-1-carboxamide] | > 10 | + |  |  |  | 
